Laboratory results reported in PMC7058016, “Photoinduced damage of AsLOV2 domain is accompanied by increased singlet oxygen production due to flavin dissociation” (Scientific Reports, 2020).

Target: T1, AsLOV2 (Avena sativa, UniProt O49003, C450A)
T1 construct: gene NPH1-1; LOV2 domain, residues 404-547, N-terminal His10-tag kept (first 31 residues not native), E. coli BL21(DE3)
Test: co-purified holoprotein; absorption and fluorescence spectra, FMN triplet lifetime, […] kDa filtration
Type: binding
Details: 20 mM Tris-HCl pH 7.8, room temperature; before irradiation; no covalent adduct possible

T1 sequence (O49003 entry or part of it C450A): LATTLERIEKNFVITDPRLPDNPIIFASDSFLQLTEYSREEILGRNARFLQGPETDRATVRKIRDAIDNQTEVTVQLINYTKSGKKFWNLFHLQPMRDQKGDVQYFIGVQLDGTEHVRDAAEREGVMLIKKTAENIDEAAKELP

## Cc1cc2nc3c(=O)[nH]c(=O)nc-3n(C[C@H](O)[C@H](O)[C@H](O)COP(=O)(O)O)c2cc1C [flavin mononucleotide]
  co-purified holoprotein; absorption and fluorescence spectra, FMN triplet lifeti: before irradiation there was no free FMN detected in the filtrate
